Consider 6 compounds from patent US20240051930A1, “HETEROAROMATIC SPERMIDINE ANALOGUES AND THEIR ANTICANCER ACTIVITY” (FLORATEK PHARMA S.A., priority 2021, published 2024).

Type in all cases: cell-based
One experiment concerns NCI-H292 cells. Description: CellTiter-Glow cell viability, lung carcinoma NCI-H292. The note with it: Homo sapiens, 72 h, read-out: % Inh @2 μM NCI-H292. As to the method:
(§1) Antitumor activity of the compounds and cisplatin as a positive control was assessed by using CellTiter-Glow® Luminescent Cell Viability assay (Promega #G7572) according to the manufacturer's instructions. The compounds were tested at 2 concentrations, 2 and 20 μM, in triplicate well conditions.
(§2) Tumor cells were grown at 37° C. in a humidified atmosphere with 5% CO2 in RPMI 1640 or DMEM medium, supplemented with 10% (v/v) fetal calf serum and 50 μg/ml gentamicin for up to 20 passages, and were passaged once or twice weekly. Cells were harvested using TrypLE or PBS buffer containing 1 mM EDTA, and the percentage of viable cells is determined using a cell counter.
(§3) Cells were harvested from exponential phase cultures, counted and plated in 96 well flat-bottom microtiter plates at a cell density depending on the cell line's growth rate (4,000-20,000 cells/well depending on the cell line's growth rate, up to 60,000 for hematological cancer cell lines) in RPMI 1640 or DMEM medium supplemented with 10% (v/v) fetal calf serum and 50 μg/ml gentamicin (140 μl/well). Cultures were incubated at 37° C. and 5% CO2 in a humidified atmosphere. After 24 h, 10 μl of test compounds or control medium are added and left on the cells for another 72 h.
(§4) Compounds were serially diluted in DMSO, transferred in cell culture medium, and added to the assay plates. The DMSO concentration was kept constant at <0.2% v/v across the assay plate. Viability of cells was quantified by CellTiter-Glow® Luminescent Cell Viability assay (Promega). Luminescence was measured with the microplate luminometer (EnVision Multi Label Reader).
On the technique in general: Cellular ATP, detected with luciferase, serves as a proxy for viable cell number.

Another experiment deals with SK-Mel-5 cell line. Put plainly: CellTiter-Glow cell viability, melanoma SK-Mel-5. To be noted: for inhibition at 2 µM: Homo sapiens, SK-MEL-5, 72 h, read-out: % Inh @2 μM SK-Mel-5. As to the method:
as §1, §2, §3, §4

A further experiment has as its system DMS114 cells. Description: CellTiter-Glow cell viability, lung carcinoma DMS114. To be noted: Homo sapiens, DMS-114, 72 h, read-out: growth inhibition of lung carcinoma cells DMS114. As to the method:
as §1, §2
(§5) Cells were harvested from exponential phase cultures, counted and plated in 96 well flat-bottom microtiter plates at a cell density depending on the cell line's growth rate (4,000-20,000 cells/well depending on the cell line's growth rate, up to 60,000 for hematological cancer cell lines) in RPMI 1640 or DMEM medium supplemented with 10% (v/v) fetal calf serum and 50 μg/ml gentamicin (140 μl/well). […]
(§6) Compounds were serially diluted in DMSO, transferred in cell culture medium, and added to the assay plates. […] Viability of cells was quantified by CellTiter-Glow® Luminescent Cell Viability assay (Promega). Luminescence was measured with the microplate luminometer (EnVision Multi Label Reader).

The test system of the next experiment is NAWALMA cells. Description: CellTiter-Glow cell viability, lymphoma NAWALMA. The note with it: 72 h, read-out: % Inh @2 μM NAWALMA. On the procedure:
as §1, §2, §3, §4

A further experiment deals with A673 cells. Description: CellTiter-Glow cell viability, Ewings sarcoma A673. To be noted: Homo sapiens, 72 h, read-out: % Inh @2 μM A673. As to the method: as §1, §2, §3, §4
For a further experiment, the system named is A2058 cells. Put plainly: CellTiter-Glow cell viability, melanoma A2058. The note with it: for inhibition at 2 µM: Homo sapiens, A2058, 72 h, read-out: % Inh @2 μM A2058. As to the method: as §1, §2, §3, §4
The next experiment has as its system Daudi cells. Description: CellTiter-Glow cell viability, lymphoma Daudi. To be noted: Homo sapiens, 72 h, read-out: % Inh @2 μM Daudi. On the procedure:
as §1, §2, §3, §4

A further experiment deals with H118MG cells. Description: CellTiter-Glow cell viability, brain carcinoma cells H118MG. The note with it: 72 h, read-out: growth inhibition of brain carcinoma cells H118MG. As to the method:
as §1, §2, §5, §6

A further experiment concerns MeWo cell line. Put plainly: CellTiter-Glow cell viability, melanoma MeWo. The note with it: Homo sapiens, 72 h, read-out: growth inhibition of MeWo cell line. As to the method: as §1, §2, §5, §6
A further experiment concerns SK-N-SH cells. Put plainly: CellTiter-Glow cell viability, brain carcinoma SK-N-SH. To be noted: Homo sapiens, 72 h, read-out: % Inh @2 μM SK-N-SH. As to the method: as §1, §2, §3, §4
Another experiment relates to HCT116 cells. Description: CellTiter-Glow cell viability, colon carcinoma HCT116. The note with it: Homo sapiens, HCT-116, 72 h, read-out: % Inh @2 μM HCT116. On the procedure: as §1, §2, §5, §6
The test system of the next experiment is K562 cells. Put plainly: CellTiter-Glow cell viability, leukemia K562. The note with it: Homo sapiens, 72 h, read-out: % Inh @2 μM K562. As to the method: as §1, §2, §5, §6
In the next experiment the test system is A375 cells. Description: CellTiter-Glow cell viability, melanoma A375. To be noted: for inhibition at 2 µM: Homo sapiens, A-375, 72 h, read-out: % Inh @2 μM A375. As to the method:
as §1, §2, §3, §4

The next experiment concerns U937 cell line. Description: CellTiter-Glow cell viability, leukemia U937. The note with it: Homo sapiens, U-937, 72 h, read-out: growth inhibition of U937 cell line. On the procedure: as §1, §2, §5, §6
Another experiment relates to SH-SY-5Y cells. Put plainly: CellTiter-Glow cell viability, brain carcinoma SH-SY-5Y. To be noted: Homo sapiens, SH-SY5Y, 72 h, read-out: % Inh @2 μM SH-SY-5Y. On the procedure:
as §1, §2, §5, §6

On to `COc1c(O)ccc2c(=O)c(O)c(-c3ccc(N(C)CCCCN(C)CCC4CCN(Cc5ccccc5)CC4)cc3)oc12` [SND437], for which the inhibition at 2 µM with NCI-H292 cells came out at 71.6%; with SK-Mel-5 cell line, 99.7%; with DMS114 cells, 98%; with NAWALMA cells, 80.8%; with A673 cells, 99.6%; with A2058 cells, 97.3%. For the same compound, the inhibition at 2 µM with Daudi cells came to 59.4%; in the experiment with H118MG cells it was 97.6%; in the experiment with MeWo cell line, 93.2%; in the experiment with SK-N-SH cells it was 96.4%; in the experiment on HCT116 cells, 83.7%; in the experiment with K562 cells, 65.3%. In the experiment on A375 cells, the inhibition at 2 µM came out at 69.5%.

`COc1c(O)ccc2c(=O)c(O)c(-c3ccc(N(C)CCCCN(C)CCN4CCN(Cc5ccccc5)CC4)cc3)oc12` [SND438]: the inhibition at 2 µM in the experiment on NCI-H292 cells is 51.9%; in the experiment with SK-Mel-5 cell line, 61.1%; in the experiment on NAWALMA cells, 65.3%; in the experiment with A673 cells it was 55.6%; in the experiment on A2058 cells it was 72.1%; in the experiment with Daudi cells, 50%. Moreover, the inhibition at 2 µM in the experiment with SK-N-SH cells was determined as 53.5%; in the experiment with A375 cells it was 55.5%. Also, the “% Inh @2 μM SK-Mel-5” value with SK-Mel-5 cell line (72 h) is reported as 50.7%. Also, the “% Inh @2 μM A2058” value in the experiment on A2058 cells (72 h) is 78.2%. Also, in the experiment on A375 cells (72 h), the “% Inh @2 μM A375” value amounted to 60.8%.

Regarding `COc1c(O)ccc2c(=O)c(O)c(-c3ccc(N(C)CCCCN(C)CCCN4CCCCC4)cc3)oc12` [SND439], the inhibition at 2 µM in the experiment on NCI-H292 cells came out at 62.6%; with NAWALMA cells, 73.4%; in the experiment with A673 cells, 80.8%; in the experiment on Daudi cells, 57.4%; in the experiment on SK-N-SH cells, 57.5%.

Consider `COc1c(O)ccc2c(=O)c(O)c(-c3ccc(N(C)CCCCNCCCNCCCCN)cc3)oc12` [SND445], for which the inhibition at 2 µM with A673 cells came to 61.8%.

For `COc1c(O)ccc2c(=O)c(O)c(-c3ccc(N(C)CCCCNCCCN)cc3)oc12` [SND446], the inhibition at 2 µM in the experiment on SK-Mel-5 cell line was found to be 56.5%; with NAWALMA cells, 75.5%; in the experiment with Daudi cells, 82%; with U937 cell line, 58%; in the experiment on SH-SY-5Y cells, 55.8%.

With `COc1c(-c2ccc(N(C)CCCCN(C)CCCN3CCCCC3)cc2)oc2c(OC)c(O)ccc2c1=O` [SND459], the inhibition at 2 µM in the experiment with A673 cells is 63.5%.
